Measurements taken from patent US20240425486A1, “FUSED BICYCLIC SUBSTITUTED N-(1H-INDOL-7-YL)BENZENESULFONAMIDES AND USES THEREOF” (Triana Biomedicines, Inc., priority 2021, published 2024).

Tests used:
DCAF15/RBM39 = DCAF15/RBM39 (Homo sapiens (Human), UniProt Q14498+Q66K64); experiment: AlphaLISA compound-induced DCAF15-RBM39 ternary complex formation; format: binding; details: His-tagged DCAF15 complex and biotin-carrying RBM39
Description: Example 7: Quantitative Evaluation of Compound-Induced Ternary Complex Formation Using Amplified Luminescent Proximity Homogeneous Assay
Compound-induced DCAF15-RBM39 ternary complex formation was monitored using AlphaLISA® assays (Perkin Elmer, Waltham, MA). Test compounds were first collected in a 384-well microplate (cat. #781280, Grenier Bio-One, Monroe, NC) as 2 mM stocks in 100% dimethyl sulfoxide (DMSO). These stocks were then serially diluted in DMSO by 3-fold into a new plate (cat. #781280, Grenier Bio-One, Monroe, NC) using a Mosquito HTS dispenser (Mosquito® HTS, SPT Labtech, Boston, MA). 0.2 μL of these diluted stocks were then dispensed into a 384-well Optiplate (cat. #6007290, Perkin Elmer, Waltham, MA) in duplicate wells, to assemble the final assay plate consisting of duplicated dose ranges. Separately, a protein mixture consisting of His-tagged DCAF15 complex and biotin-carrying RBM39, each at 408 nM (2.04×), was prepared in 50 mM HEPES, pH 7.5, 100 mM NaCl, 2 mM MgCl2, 0.1% BSA, 2 mM TCEP, 0.05% Tween-20 (dilution buffer). 9.8 μL of this protein mixture was then mixed with the compounds in the assay plate and incubated for one hour at room temperature. Reaction mixtures with no compounds added were included as negative controls, while a His-tagged and biotinylated GST protein was included to track general assay performance. Nickel Chelate AlphaLISA Acceptor beads (cat. #AL108M, Perkin Elmer, MA) and AlphaScreen Streptavidin Donor beads (cat. #6760002, Perkin Elmer, Waltham, MA) were prepared separately in the dilution buffer as 4× stocks (80 ug/ml). The beads were then added to the assay plate sequentially with incubation at room temperature for 1-2 hours after each addition. Signals were recorded using EnVision 2104 Multilabel Plate Reader (Perkin Elmer, Waltham, MA) and titration curves were generated in GraphPad Prism (7.00, GraphPad, La Jolla, CA).

DCAF15 = DCAF15 (Homo sapiens (Human), UniProt Q66K64); experiment: HTRF competition assay, binary interaction with DCAF15; format: binding; details: competition with Alexa Fluor 647 tracer
Sequence of DCAF15 (Q66K64 whole entry): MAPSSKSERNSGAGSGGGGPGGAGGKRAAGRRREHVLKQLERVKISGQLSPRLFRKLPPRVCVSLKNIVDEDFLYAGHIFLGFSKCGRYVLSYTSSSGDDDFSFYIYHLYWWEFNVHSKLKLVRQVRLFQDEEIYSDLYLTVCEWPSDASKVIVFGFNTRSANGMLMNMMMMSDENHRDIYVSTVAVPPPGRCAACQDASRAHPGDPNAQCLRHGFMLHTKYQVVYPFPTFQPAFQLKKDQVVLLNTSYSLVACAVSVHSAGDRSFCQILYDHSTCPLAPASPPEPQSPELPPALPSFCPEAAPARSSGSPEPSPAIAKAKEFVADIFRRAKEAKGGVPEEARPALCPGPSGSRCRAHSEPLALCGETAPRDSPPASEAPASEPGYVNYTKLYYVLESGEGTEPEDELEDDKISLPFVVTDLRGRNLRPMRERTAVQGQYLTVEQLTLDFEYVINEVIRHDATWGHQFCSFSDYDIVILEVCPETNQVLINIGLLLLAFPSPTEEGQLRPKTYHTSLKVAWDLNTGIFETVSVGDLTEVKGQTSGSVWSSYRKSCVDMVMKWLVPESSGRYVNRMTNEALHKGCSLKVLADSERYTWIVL
Sequence of DCAF15 (Q16531 whole entry partner): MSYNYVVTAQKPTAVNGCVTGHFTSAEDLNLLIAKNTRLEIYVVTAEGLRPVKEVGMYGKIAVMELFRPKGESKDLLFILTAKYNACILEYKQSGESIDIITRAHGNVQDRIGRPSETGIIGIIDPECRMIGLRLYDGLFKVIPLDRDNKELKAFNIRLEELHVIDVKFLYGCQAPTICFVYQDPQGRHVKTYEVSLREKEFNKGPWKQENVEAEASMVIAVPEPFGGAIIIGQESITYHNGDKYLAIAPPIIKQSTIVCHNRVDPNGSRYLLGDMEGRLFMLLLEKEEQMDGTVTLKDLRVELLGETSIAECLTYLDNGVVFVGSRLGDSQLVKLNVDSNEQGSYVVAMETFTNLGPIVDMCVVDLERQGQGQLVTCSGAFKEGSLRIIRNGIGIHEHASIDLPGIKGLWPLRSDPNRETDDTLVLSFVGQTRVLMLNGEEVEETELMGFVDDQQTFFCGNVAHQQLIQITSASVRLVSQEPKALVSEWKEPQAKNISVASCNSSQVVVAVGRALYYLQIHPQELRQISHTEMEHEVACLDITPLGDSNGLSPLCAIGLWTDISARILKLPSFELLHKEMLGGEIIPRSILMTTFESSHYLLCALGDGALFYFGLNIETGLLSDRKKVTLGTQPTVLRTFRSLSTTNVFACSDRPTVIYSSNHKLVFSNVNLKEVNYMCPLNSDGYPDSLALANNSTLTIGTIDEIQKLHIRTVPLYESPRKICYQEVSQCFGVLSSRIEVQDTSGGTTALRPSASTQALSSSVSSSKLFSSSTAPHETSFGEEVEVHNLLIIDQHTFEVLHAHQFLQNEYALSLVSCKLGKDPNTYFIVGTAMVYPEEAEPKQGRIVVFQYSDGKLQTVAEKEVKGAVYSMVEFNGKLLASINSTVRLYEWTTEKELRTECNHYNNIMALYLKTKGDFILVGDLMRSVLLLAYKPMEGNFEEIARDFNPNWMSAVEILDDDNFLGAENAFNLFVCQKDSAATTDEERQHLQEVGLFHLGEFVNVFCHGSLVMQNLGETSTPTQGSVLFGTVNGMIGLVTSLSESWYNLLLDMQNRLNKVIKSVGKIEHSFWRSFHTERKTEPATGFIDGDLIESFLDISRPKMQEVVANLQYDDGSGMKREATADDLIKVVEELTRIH
Description: Example 8: Measurement of Binary Interaction Between Compounds and DCAF15 Using Homogeneous Time Resolved Fluorescence (HTRF)
DCAF15 interactions with test compounds were monitored using HTRF competition assays (Cisbio, Bedford, MA). Test compounds were first collected in a 384-well microplate (cat. #781280, Grenier Bio-One, Monroe, NC) as 10 mM stocks in 100% dimethyl sulfoxide (DMSO). A second stock plate (cat. #781280, Grenier Bio-One, Monroe, NC) was prepared through 3-fold serial dilution in DMSO of the afore-mentioned stocks using a Mosquito HTS dispenser (mosquito@ HTS, SPT Labtech, Boston, MA). 0.2 μL of these diluted stocks were then dispensed into a 384-well Optiplate (cat. #6007290, Perkin Elmer, Waltham, MA) in duplicate wells, to assemble the assay plate. The tracer molecule containing an Alexa Fluor 647 probe was prepared in 25 mM HEPES pH 7.5, 100 mM NaCl, 0.1 mg/ml BSA, 0.005% Tween 20, 0.5 mM TCEP (dilution buffer) to 612 nM (2.04×). Separately, His-tagged DCAF15 complex was prepared at 32 nM (4×) in the dilution buffer, and mAb Anti-6His-Eu cryptate Gold (cat. #61H12KLA, Cisbio, Bedford, MA) at 4× dilution in the detection buffer (cat. #61DB9RDF, Cisbio, Bedford, MA). These two solutions were mixed and incubated for 15 min at room temperature. 9.8 μL of the tracer solution and 10 μL of the DCAF15/mAb Anti-6His-Eu cryptate Gold mixture were added sequentially to each well in the assay plate. Reaction mixtures with no DCAF15 added were included as positive controls. The final mixture was incubated for an hour at room temperature and spun down briefly before data collection at 615 nm and 666 nm using EnVision 2104 Multilabel Plate Reader (Perkin Elmer, Bedford, MA). Binding was estimated based on ratiometric analysis and titration curves were generated in GraphPad Prism (7.00, GraphPad, La Jolla, CA).

Sequence of DCAF15/RBM39 (Q66K64 whole entry, species assumed): as the sequence (Q66K64 whole entry) above
Sequence of DCAF15/RBM39 (Q14498 whole entry, species assumed): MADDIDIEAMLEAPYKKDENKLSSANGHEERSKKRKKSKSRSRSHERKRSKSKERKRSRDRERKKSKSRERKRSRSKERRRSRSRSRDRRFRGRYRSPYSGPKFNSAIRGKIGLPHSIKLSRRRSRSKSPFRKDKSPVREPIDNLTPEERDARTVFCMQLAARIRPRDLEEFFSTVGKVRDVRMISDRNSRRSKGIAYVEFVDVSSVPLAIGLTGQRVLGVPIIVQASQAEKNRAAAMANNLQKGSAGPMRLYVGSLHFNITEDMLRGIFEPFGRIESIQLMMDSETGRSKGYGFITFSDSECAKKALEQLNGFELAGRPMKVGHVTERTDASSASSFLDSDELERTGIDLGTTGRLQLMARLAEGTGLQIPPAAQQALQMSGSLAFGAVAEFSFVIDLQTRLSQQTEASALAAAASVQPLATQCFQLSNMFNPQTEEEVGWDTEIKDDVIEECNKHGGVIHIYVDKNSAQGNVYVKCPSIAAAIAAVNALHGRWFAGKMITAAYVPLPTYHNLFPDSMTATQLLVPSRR
Sequence of DCAF15/RBM39 (Q16531 whole entry partner, species assumed): as the sequence (Q16531 whole entry partner) above

Row | EC50 (DCAF15/RBM39) [nM] | IC50 (DCAF15) [µM] | SMILES
1 | 1000 to 10000 | – | Cn1cc(S(=O)(=O)Nc2ccc(Cl)c3c(Cl)c[nH]c23)c2ccccc21 [Compound 2]
2 | ≤ 1000 | 1 to 10 | O=C1CCc2ccc(S(=O)(=O)Nc3ccc(Cl)c4c(Cl)c[nH]c34)cc21 [Compound 7]
3 | ≤ 1000 | 1 to 10 | O=C1OCc2ccc(S(=O)(=O)Nc3ccc(Cl)c4c(Cl)c[nH]c34)cc21 [Compound 10]
4 | ≤ 1000 | 1 to 10 | O=S(=O)(Nc1ccc(Cl)c2c(Cl)c[nH]c12)c1ccc2occc2c1 [Compound 11]
5 | 1000 to 10000 | 1 to 10 | O=C1Nc2ccc(S(=O)(=O)Nc3ccc(Cl)c4c(Cl)c[nH]c34)cc2C1=O [Compound 14]
6 | 1000 to 10000 | 10 to 100 | Cn1c(=O)n(C)c2cc(S(=O)(=O)Nc3ccc(Cl)c4c(Cl)c[nH]c34)ccc21 [Compound 19]
7 | 1000 to 10000 | 1 to 10 | O=C1NS(=O)(=O)c2ccc(S(=O)(=O)Nc3ccc(Cl)c4c(Cl)c[nH]c34)cc21 [Compound 23]
8 | ≤ 1000 | – | O=C1COc2cc(S(=O)(=O)Nc3ccc(Cl)c4c(Cl)c[nH]c34)ccc2N1 [Compound 40]
9 | ≤ 1000 | – | Cn1c(=O)c2cc(S(=O)(=O)Nc3ccc(Cl)c4c(Cl)c[nH]c34)ccc2n(C)c1=O [Compound 43, N-(3,4-dichloro-1H-indol-7-yl)-1,3-dimethyl-2,4-dioxo-1,2,3,4-tetrahydroquinazoline-6-sulfonamide]

Second part, the molecule before the results:

Row | SMILES | EC50 (DCAF15/RBM39) [nM] | IC50 (DCAF15) [µM]
10 | O=S(=O)(Nc1ccc(Cl)c2c(Cl)c[nH]c12)c1cc2cc(F)ccc2s1 [Compound 5] | 1000 to 10000 | –
11 | CC(=O)N[C@H]1Cc2ccc(S(=O)(=O)Nc3ccc(Cl)c4c(Cl)c[nH]c34)cc2C1 [Compound 8] | ≤ 1000 | 1 to 10
12 | CC1(C)Cc2cc(S(=O)(=O)Nc3ccc(Cl)c4c(Cl)c[nH]c34)ccc2O1 [Compound 9] | 1000 to 10000 | > 100
13 | CC(=O)N1CCc2cc(S(=O)(=O)Nc3ccc(Cl)c4c(Cl)c[nH]c34)ccc21 [Compound 12] | 1000 to 10000 | 1 to 10
14 | CC(=O)N1Cc2ccc(S(=O)(=O)Nc3ccc(Cl)c4c(Cl)c[nH]c34)cc2C1 [Compound 15] | 1000 to 10000 | 1 to 10
15 | CN1C(=O)c2ccc(S(=O)(=O)Nc3ccc(Cl)c4c(Cl)c[nH]c34)cc2C1=O [Compound 16] | 1000 to 10000 | 1 to 10
16 | O=S(=O)(Nc1ccc(Cl)c2c(Cl)c[nH]c12)c1ccc2c(c1)OC(F)(F)O2 [Compound 18] | ≤ 1000 | 1 to 10
17 | O=c1[nH]c2ccc(S(=O)(=O)Nc3ccc(Cl)c4c(Cl)c[nH]c34)cc2o1 [Compound 21] | 1000 to 10000 | –
18 | Cn1c(=O)oc2cc(S(=O)(=O)Nc3ccc(Cl)c4c(Cl)c[nH]c34)ccc21 [Compound 22] | ≤ 1000 | 1 to 10
19 | O=S(=O)(Nc1ccc(Cl)c2c(Cl)c[nH]c12)c1ccc2c(c1)CCCC2 [Compound 24] | 1000 to 10000 | > 100
20 | O=S(=O)(Nc1ccc(Cl)c2c(Cl)c[nH]c12)c1ccc2ccccc2c1F [Compound 25] | ≤ 1000 | 1 to 10
21 | O=S(=O)(Nc1ccc(Cl)c2c(Cl)c[nH]c12)c1ccc2c(Cl)ccc(Cl)c2c1 [Compound 28] | 10000 to 100000 | –
22 | O=S(=O)(Nc1ccc(Cl)c2c(Cl)c[nH]c12)c1ccc2c(c1)CC[C@@H](C(F)F)O2 [Compound 29] | 1000 to 10000 | 10 to 100
23 | O=C1CCOc2ccc(S(=O)(=O)Nc3ccc(Cl)c4c(Cl)c[nH]c34)cc21 [Compound 30] | 1000 to 10000 | –
24 | O=C1OCCc2ccc(S(=O)(=O)Nc3ccc(Cl)c4c(Cl)c[nH]c34)cc21 [Compound 31] | ≤ 1000 | 1 to 10
25 | O=C(N1CCc2ccc(S(=O)(=O)Nc3ccc(Cl)c4c(Cl)c[nH]c34)cc2C1)C(F)(F)F [Compound 33] | ≤ 1000 | –
26 | O=C1COc2ccc(S(=O)(=O)Nc3ccc(Cl)c4c(Cl)c[nH]c34)cc2N1 [Compound 39] | 1000 to 10000 | –
27 | CC(C)(C)OC(=O)N1CCCc2cc(S(=O)(=O)Nc3ccc(Cl)c4c(Cl)c[nH]c34)ccc2C1 [Compound 46] | 1000 to 10000 | –
